This note sets out measurements from US20060167001A1, “Pyridazinone-derivatives as pde4 inhibitors” (priority 2002, published 2006).

The term melting point denotes the temperature of the solid-liquid transition.

One series deals with T1, PDE3A1 (Homo sapiens, UniProt Q14432).
T1 construct: The whole ORF was subcloned into pBacPak9 (Clontech, Palo Alto) using EcoRi; made in house; host or cells: baculovirus (pBacPak9), SF21 insect cells (virus made in SF9); 1000 x g supernatant of the homogenate
T1 sequence (Q14432 whole entry): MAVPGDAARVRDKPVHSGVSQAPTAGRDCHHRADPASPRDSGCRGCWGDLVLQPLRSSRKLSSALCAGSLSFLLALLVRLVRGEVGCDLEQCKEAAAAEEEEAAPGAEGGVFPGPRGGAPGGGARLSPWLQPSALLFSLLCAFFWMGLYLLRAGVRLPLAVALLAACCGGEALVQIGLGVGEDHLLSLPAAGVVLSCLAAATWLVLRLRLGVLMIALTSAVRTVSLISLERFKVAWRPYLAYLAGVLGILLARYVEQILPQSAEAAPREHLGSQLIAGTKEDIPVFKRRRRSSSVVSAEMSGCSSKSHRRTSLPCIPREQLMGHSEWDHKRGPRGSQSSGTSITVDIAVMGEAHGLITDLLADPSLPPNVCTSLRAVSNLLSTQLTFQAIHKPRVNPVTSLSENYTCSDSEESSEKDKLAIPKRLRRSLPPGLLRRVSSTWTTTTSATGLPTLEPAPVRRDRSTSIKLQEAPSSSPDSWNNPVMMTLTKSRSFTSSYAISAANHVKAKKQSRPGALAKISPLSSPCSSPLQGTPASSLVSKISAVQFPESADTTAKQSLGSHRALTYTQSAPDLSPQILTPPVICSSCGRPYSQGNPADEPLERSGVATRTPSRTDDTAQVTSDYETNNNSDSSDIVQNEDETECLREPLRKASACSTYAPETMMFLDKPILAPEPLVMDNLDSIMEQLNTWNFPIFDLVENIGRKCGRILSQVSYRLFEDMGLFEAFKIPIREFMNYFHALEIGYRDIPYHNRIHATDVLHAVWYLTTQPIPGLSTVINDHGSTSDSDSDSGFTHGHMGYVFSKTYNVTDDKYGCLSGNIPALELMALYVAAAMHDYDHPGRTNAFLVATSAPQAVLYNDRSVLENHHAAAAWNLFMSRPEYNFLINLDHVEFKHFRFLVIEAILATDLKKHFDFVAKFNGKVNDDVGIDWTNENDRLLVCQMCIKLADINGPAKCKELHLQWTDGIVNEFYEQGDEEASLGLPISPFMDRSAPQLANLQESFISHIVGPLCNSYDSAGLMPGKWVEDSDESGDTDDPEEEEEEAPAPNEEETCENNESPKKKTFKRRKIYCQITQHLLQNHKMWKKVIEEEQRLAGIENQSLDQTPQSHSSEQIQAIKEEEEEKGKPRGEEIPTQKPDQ
Nature of the series: Inhibition of recombinant PDE3A1, Method B (SPA test). The conditions noted are these: 0.5 μM cAMP, read-out: PDE3 Inhibition [measured as −logIC50 (mol/l)] (converted). The class given is biochemical. From the text:
The cDNA for PDE3A1 (GB no. U36798) was isolated in 2 steps using PCR. A 3′ terminal cDNA fragment of PDE3A1 was amplified from fat cells cDNA (Clontech, Palo Alto) using primers OZ 458 (5′-[…]-3′) and OZ 457 (5′-[…]-3′). The 5′ terminal cDNA fragment of PDE3A1 was amplified from Placenta cDNA (Clontech, Palo Alto) using primers OZ 455 (5′-[…]-3′) and OZ 456 (5′-[…]-3′). The PCR products were cloned into pCR2.1-Topo (Invitrogen, Groningen, NL) under standard conditions (the manufacturer's instructions). The 3′ fragment was cut out with HindII and cloned into the HindII site of the construct carrying the 5′ fragment. The whole ORF was subcloned into pBacPak9 (Clontech, Palo Alto) using EcoRi. Aminoacid 12 is Aspartic Acid like in sequence GB no. AJ005036, aa 69 and aa 110 are respective Serine and Glycine like in both sequences GB no. AJ005036 and GB no. M91667.
(§1) The recombinant baculovirus was prepared by means of homologous recombination in SF9 insect cells. The expression plasmids were cotransfected with Bac-N-Blue (Invitrogen, Groningen, NL) or Baculo-Gold DNA (Pharmingen, Hamburg) using a standard protocol (Pharmingen, Hamburg). Wt virus-free recombinant virus supernatants were selected using plaque assay methods. After that, high-titre virus supernatants were prepared by amplifying 3 times. PDEs were expressed in SF21 cells by infecting 2×10^6 cells/ml with an MOI (multiplicity of infection) between 1 and 10 in serum-free SF900 medium (Life Technologies, Paisley, UK). The cells were cultured at 28° C. for 48-72 hours, after which they were pelleted for 5-10 min at 1000 g and 4° C.
(§2) The SF21 insect cells were resuspended, at a concentration of approx. 10^7 cells/ml, in ice-cold (4° C.) homogenization buffer (20 mM Tris, pH 8.2, containing the following additions: 140 mM NaCl, 3.8 mM KCl, 1 mM EGTA, 1 mM MgCl2, 10 mM β-mercaptoethanol, 2 mM benzamidine, 0.4 mM Pefablock, 10 μM leupeptin, 10 μM pepstatin A, 5 μM trypsin inhibitor) and disrupted by ultrasonication. The homogenate was then centrifuged for 10 min at 1000× g and the supernatant was stored at −80° C. until subsequent use (see below). The protein content was determined by the Bradford method (BioRad, Munich) using BSA as the standard.
PDE3A1 and PDE4B2 activities were inhibited by the said compounds in a modified SPA (scintillation proximity assay) test, supplied by Amersham Biosciences (see procedural instructions “phosphodiesterase [3H]cAMP SPA enzyme assay, code TRKQ 7090”), carried out in 96-well microtitre plates (MTP's). The test volume is 100 μl and contains 20 mM Tris buffer (pH 7.4), 0.1 mg of BSA (bovine serum albumin)/ml, 5 mM Mg^2+, 0.5 μM cAMP (including about 50,000 cpm of [3H]cAMP), 1 μl of the respective substance dilution in DMSO and sufficient recombinant PDE (1000× g supernatant, see above) to ensure that 10-20% of the cAMP is converted under the said experimental conditions. […] After a preincubation of 5 min at 37° C., the reaction is started by adding the substrate (cAMP) and the assays are incubated for a further 15 min; after that, they are stopped by adding SPA beads (50 μl). […] After the beads have been sedimented (>30 min), the MTP's are analyzed in commercially available luminescence detection devices. The corresponding IC50 values of the compounds for the inhibition of PDE activities are determined from the concentration-effect curves by means of non-linear regression.

For the next series, the target named is T2, PDE4B2 (Homo sapiens, UniProt Q07343).
T2 construct: made in house; host or cells: baculovirus, SF21 insect cells (virus made in SF9); 1000 x g supernatant of the homogenate
T2 sequence (Q07343 1-564 isoform Q07343-2): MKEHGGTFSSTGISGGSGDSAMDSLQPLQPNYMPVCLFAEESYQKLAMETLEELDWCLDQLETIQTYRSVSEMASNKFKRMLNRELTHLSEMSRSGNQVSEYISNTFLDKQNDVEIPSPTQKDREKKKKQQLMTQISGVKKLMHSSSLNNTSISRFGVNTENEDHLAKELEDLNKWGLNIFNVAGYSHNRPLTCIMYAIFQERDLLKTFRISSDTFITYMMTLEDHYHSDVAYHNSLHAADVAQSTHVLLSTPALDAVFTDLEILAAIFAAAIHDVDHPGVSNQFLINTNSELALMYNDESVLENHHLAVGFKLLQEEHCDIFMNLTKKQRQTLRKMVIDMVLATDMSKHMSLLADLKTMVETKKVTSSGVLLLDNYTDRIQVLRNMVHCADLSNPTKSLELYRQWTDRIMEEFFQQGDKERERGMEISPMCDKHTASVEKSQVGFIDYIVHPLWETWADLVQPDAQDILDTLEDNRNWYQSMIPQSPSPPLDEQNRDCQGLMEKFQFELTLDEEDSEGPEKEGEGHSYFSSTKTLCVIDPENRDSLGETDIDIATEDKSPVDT
The series is described as follows: Inhibition of recombinant PDE4B2, Method B (SPA test). The class given is biochemical. The conditions noted are these: 0.5 μM cAMP, read-out: PDE4 Inhibition [measured as −logIC50 (mol/l)] (converted). The method, then: The PDE4B2 (GB no. M97515) was a gift of Prof. M. Conti (Stanford University, USA). It was amplified from the original plasmid (pCMV5) via PCR with primers Rb9 (5′-[…]-3′) and Rb10 (5′-[…]-3′) and cloned into the pCR-Bac vector (Invitrogen, Groningen, NL).
as §1, §2
PDE3A1 and PDE4B2 activities were inhibited by the said compounds in a modified SPA (scintillation proximity assay) test, supplied by Amersham Biosciences (see procedural instructions “phosphodiesterase [3H]cAMP SPA enzyme assay, code TRKQ 7090”), carried out in 96-well microtitre plates (MTP's). The test volume is 100 μl and contains 20 mM Tris buffer (pH 7.4), 0.1 mg of BSA (bovine serum albumin)/ml, 5 mM Mg^2+, 0.5 μM cAMP (including about 50,000 cpm of [3H]cAMP), 1 μl of the respective substance dilution in DMSO and sufficient recombinant PDE (1000× g supernatant, see above) to ensure that 10-20% of the cAMP is converted under the said experimental conditions. […] After a preincubation of 5 min at 37° C., the reaction is started by adding the substrate (cAMP) and the assays are incubated for a further 15 min; after that, they are stopped by adding SPA beads (50 μl). In accordance with the manufacturer's instructions, the SPA beads had previously been resuspended in water, but were then diluted 1:3 (v/v) in water; the diluted solution also contains 3 mM IBMX to ensure a complete PDE activity stop. After the beads have been sedimented (>30 min), the MTP's are analyzed in commercially available luminescence detection devices. The corresponding IC50 values of the compounds for the inhibition of PDE activities are determined from the concentration-effect curves by means of non-linear regression.

In another series the target is T3, PDE3 (cGMP-inhibited) (Homo sapiens, UniProt Q14432).
T3 construct: investigated in homogenates of human platelets; from tissue; host or cells: homogenates of human platelets
T3 sequence (Q14432 whole entry): as the sequence (Q14432 whole entry) above
The series is described as follows: Inhibition of PDE3 activity, Method A (homogenates of human platelets). The class given is biochemical. The method, then: The PDE activity was determined according to Thompson et al. (Adv Cycl Nucl Res 10: 69-92, 1979) with some modifications (Bauer and Schwabe, Naunyn-Schmiedeberg's Arch Pharmacol 311: 193-198, 1980). The test samples contained 20 mM Tris (pH 7.4), 5 mM MgCl2, 0.5 μM cAMP or cGMP, [^3H]cAMP or [^3H]cGMP (about 30 000 cpm/sample), the PDE isoenzyme-specific additives described in greater detail below, the indicated concentrations of inhibitor and an aliquot of the enzyme solution in a total sample volume of 200 μl. Dilution series of the compounds according to the invention were prepared in DMSO and further diluted in the samples [1:100 (v/v)], to give the desired end concentration of the inhibitors at a DMSO concentration of 1% (v/v), which for its part has only a minute effect on PDE activity.
After preincubation at 37° C. for 5 minutes, the reaction was started by addition of the substrate (cAMP or cGMP). The samples were incubated at 37° C. for a further 15 min. The reaction was terminated by addition of 50 μl 0.2 N HCl. After cooling on ice for 10 minutes and addition of 25 μg 5′-nucleotidase (snake venom from Crotalus atrox), the mixture was again incubated at 37° C. for 10 mih and the samples were then applied to QAE Sephadex A-25 columns (sample volume 1 ml). The columns were eluted with 2 ml of 30 mM ammonium formate (pH 6.0). The radioactivity of the eluate was measured and corrected by the corresponding blank values (measured in the presence of denatured protein); the blank values were less than 5% of the total radioactivity. In no case did the proportion of hydrolyzed nucleotide exceed 30% of the original substrate concentration.
PDE3 (cGMP-inhibited) was investigated in homogenates of human platelets (see Schudt et al., Biochem Pharmacol 1991: 42, 153-162) using cAMP or cGMP as substrate.
The IC50 values were determined from the concentration-inhibition curves by nonlinear regression.

The next series addresses PDE4 (cAMP-specific) (Homo sapiens, UniProt Q07343). Nature of the series: Inhibition of PDE4 activity, Method A (radioactive cAMP hydrolysis, cytosol of human PMNL). The class given is biochemical. The conditions noted are these: cAMP substrate, 1 μM motapizone.

Structures are written as SMILES. Structures can show the parent of a compound that is named as a salt.

Sequence of PDE4 (cAMP-specific) (Q07343 whole entry): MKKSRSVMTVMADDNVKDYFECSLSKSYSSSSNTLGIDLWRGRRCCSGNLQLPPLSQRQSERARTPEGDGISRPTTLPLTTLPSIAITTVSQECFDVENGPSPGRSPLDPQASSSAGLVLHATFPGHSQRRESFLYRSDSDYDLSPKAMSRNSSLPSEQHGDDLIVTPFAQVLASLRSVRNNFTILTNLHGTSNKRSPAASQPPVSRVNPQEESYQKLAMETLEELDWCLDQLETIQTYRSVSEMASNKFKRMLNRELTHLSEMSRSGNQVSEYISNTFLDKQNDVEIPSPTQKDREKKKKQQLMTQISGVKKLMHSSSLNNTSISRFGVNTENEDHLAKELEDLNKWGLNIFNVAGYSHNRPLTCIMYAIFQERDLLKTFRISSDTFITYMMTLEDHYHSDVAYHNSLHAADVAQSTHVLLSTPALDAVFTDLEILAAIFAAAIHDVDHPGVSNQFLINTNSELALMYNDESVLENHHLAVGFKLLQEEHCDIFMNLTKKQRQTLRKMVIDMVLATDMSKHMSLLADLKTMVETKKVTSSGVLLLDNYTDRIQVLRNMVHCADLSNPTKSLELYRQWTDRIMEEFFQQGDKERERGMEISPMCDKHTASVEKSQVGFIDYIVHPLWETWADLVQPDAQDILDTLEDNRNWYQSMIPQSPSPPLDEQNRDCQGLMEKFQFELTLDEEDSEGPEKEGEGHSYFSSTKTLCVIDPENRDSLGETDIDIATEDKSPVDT

`COc1ccc(C2=NN(C3CCN(CC(=O)N4CCN(C)CC4)CC3)C(=O)CC2)cc1OC.Cl.Cl` [Compound 28, 6-(3,4-Dimethoxy-phenyl)-2-{1-[2-(4-methyl-piperazin-1-yl)-2-oxo-ethyl]-piperidin-4-yl}-4,5-dihydro-2H-pyridazin-3-one dihydrochloride] had a melting point of 194 to 199 °C. In addition, on PDE3A1, the IC50 is more than 10000 nM. In addition, the IC50 on PDE4B2 is 20 nM.
Turning to `COc1ccc(OC)c(S(=O)(=O)N2CCC(N3N=C(c4ccc(OC)c(OC)c4)CCC3=O)CC2)c1` [Compound 17], the “PDE3 Inhibition [measured as −logIC50 (mol/l)]” value on PDE3 (cGMP-inhibited) was 6.8 −log(mol/l) (pIC50). Besides, the “PDE4 Inhibition [measured as −logIC50 (mol/l)]” value at PDE4 (cAMP-specific) was 7.8 -log(mol/l).
For `COc1ccc(C2=NN(C3CCN(C(=O)CN4CCN(c5ccncc5)CC4)CC3)C(=O)CC2)cc1OC` [Compound 29, 6-(3,4-Dimethoxy-phenyl)-2-{1-[2-(4-pyridin-4-yl-piperazin-1-yl)-ethanoyl]-piperidin-4-yl}-4,5-dihydro-2H-pyridazin-3-one dihydrochloride], the IC50 on PDE3A1 is 3160 nM; on PDE4B2, 15.8 nM.
As for `COc1ccc(C2=NN(C3CCN(C(=O)c4c(Cl)cc(Cl)cc4Cl)CC3)C(=O)CC2)cc1OC` [Compound 25, 6-(3,4-Dimethoxy-phenyl)-2-{1-[1-(2,4,6-trichloro-phenyl)-methanoyl]-piperidin-4-yl}-4,5-dihydro-2H-pyridazin-3-one], the melting point was in the range of 156 to 159 °C. For the same compound, on PDE3A1, the IC50 is 15.8 nM. For the same compound, at PDE4B2, the IC50 is 2.51 nM.
Taken in the same sequence, the figures for `COc1ccc(C2=NN(C3CCN(C(=O)CN4CCN(C(c5ccccc5)c5ccccc5)CC4)CC3)C(=O)CC2)cc1OC.Cl.Cl` [Compound 31, 6-(3,4-Dimethoxy-phenyl)-2-(1-{2-[4-(1,1-diphenyl-methyl)-piperazin-1-yl]-ethanoyl}-piperidin-4-yl)-4,5-dihydro-2H-pyridazin-3-one dihydrochloride] were 126 to 127 °C, 3980 nM and 39.8 nM.
As for `COc1ccc(C2=NN(C3CCN(C(=O)c4ccccc4)CC3)C(=O)CC2)cc1OC` [Compound 23, 6-(3,4-Dimethoxy-phenyl)-2-[1-(1-phenyl-methanoyl)-piperidin-4-yl]-4,5-dihydro-2H-pyridazin-3-one], the melting point is 152 to 154 °C. Also, the IC50 at PDE3A1 is 126 nM. In addition, at PDE4B2, the IC50 is 7.94 nM.
Regarding `COc1ccc(C2=NN(C3CCN(S(=O)(=O)c4cccs4)CC3)C(=O)CC2)cc1OC` [Compound 19, 6-(3,4-Dimethoxy-phenyl)-2-[1-(thiophene-2-sulfonyl)-piperidin-4-yl]-45-dihydro-2H-pyridazin-3-one], the “PDE3 Inhibition [measured as −logIC50 (mol/l)]” value on PDE3 (cGMP-inhibited) is on record as 6.9 −log(mol/l) (pIC50). In addition, the “PDE4 Inhibition [measured as −logIC50 (mol/l)]” value at PDE4 (cAMP-specific) is given as 8.3 -log(mol/l).
